Measurements as given in US10385057B2, “Pyrazole compounds and methods of making and using same” (Lundbeck La Jolla Research Center, Inc., priority 2015, dated 2019).

Legend:
[1] = target: T1, FAAH (Mus musculus, UniProt O08914); experiment: In vitro competitive activity-based protein profiling, mouse FAAH; assay type: biochemical; conditions: for inhibition at 1 µM: read-out: FAAH % inh. 1 μM (mouse)
T1 construct: mouse brain membrane fraction or cell lysates for mouse assays; from tissue
T1 sequence (O08914 1-579): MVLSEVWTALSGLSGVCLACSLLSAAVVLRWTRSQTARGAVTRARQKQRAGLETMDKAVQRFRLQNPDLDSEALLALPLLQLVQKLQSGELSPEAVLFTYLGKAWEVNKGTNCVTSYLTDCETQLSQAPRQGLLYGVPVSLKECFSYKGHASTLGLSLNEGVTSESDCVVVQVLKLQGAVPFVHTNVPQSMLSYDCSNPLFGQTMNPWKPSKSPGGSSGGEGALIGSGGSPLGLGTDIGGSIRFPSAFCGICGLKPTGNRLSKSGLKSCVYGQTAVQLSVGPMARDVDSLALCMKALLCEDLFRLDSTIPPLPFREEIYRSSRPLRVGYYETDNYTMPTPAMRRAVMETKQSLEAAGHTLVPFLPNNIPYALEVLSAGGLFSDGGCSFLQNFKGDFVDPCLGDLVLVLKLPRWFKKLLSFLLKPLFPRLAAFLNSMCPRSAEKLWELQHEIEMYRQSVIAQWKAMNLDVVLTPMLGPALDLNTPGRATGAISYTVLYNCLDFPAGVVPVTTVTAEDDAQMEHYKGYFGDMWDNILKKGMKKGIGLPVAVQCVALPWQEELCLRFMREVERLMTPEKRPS
Outline: (§1)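 Activity measured as fluorescent gel-band intensity of MAGL and FAAH after SDS-PAGE. Before labelling with FP-Rh or HT-01 (30 min, 37 °C), proteomes at 1.0 mg/mL (mouse brain membrane or lysates; human prefrontal cortex or cell membranes) were exposed to varying inhibitor concentrations for 30 min at 37 °C.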

[2] = target: T2, MAGL (Mus musculus, UniProt O35678); experiment: In vitro competitive activity-based protein profiling, mouse MAGL; assay type: biochemical; conditions: for inhibition at 1 µM: read-out: MAGL % inh. 1 μM (mouse)
T2 construct: mouse brain membrane fraction or cell lysates for mouse assays; from tissue
T2 sequence (O35678 1-303): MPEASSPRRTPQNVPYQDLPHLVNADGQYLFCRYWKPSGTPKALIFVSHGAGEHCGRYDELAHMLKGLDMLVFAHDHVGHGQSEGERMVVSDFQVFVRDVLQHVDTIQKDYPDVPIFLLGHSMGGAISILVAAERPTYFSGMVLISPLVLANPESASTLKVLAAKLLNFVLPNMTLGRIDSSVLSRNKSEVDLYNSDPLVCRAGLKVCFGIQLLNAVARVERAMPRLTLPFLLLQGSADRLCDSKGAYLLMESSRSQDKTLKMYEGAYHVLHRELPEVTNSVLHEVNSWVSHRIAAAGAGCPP
Outline: as §1

Row | SMILES | inhibition at 1 µM ([1]; 1 μM) | inhibition at 10 µM ([1]; 10 μM, read-out: FAAH % inh. at 10 μM (mouse)) | inhibition at 1 µM ([2]; 1 μM) | inhibition at 10 µM ([2]; 10 μM, read-out: MAGL % inh. at 10 μM (mouse)) | IC50 [1] | IC50 [2] | FAAH % inh. 1 μM (mouse) ([1]; 1 μM) | MAGL % inh. 1 μM (mouse) ([2]; 1 μM)
1 | O=C(c1cnn(C(=O)N2CC3CN(Cc4ccc(Oc5ccc(Cl)cc5)cc4)CC3C2)c1)N1CCOCC1 (centres unmarked) [Example 200, (5-(4-(4-chlorophenoxy)benzyl)hexahydropyrrolo[3,4-c]pyrrol-2(1H)-yl)(4-(morpholine-4-carbonyl)-1H-pyrazol-1-yl)methanone] | ≥ 75% | 100% | 0 to 25% | 50% | – | – | – | –
2 | Cc1ccc(CN2CC3CN(C(=O)n4cc(C(F)(F)F)cn4)CC3C2)cc1 (centres unmarked) [Example 147, (5-(4-methylbenzyl)hexahydropyrrolo[3,4-c]pyrrol-2(1H)-yl)(4-(trifluoromethyl)-1H-pyrazol-1-yl)methanone] | ≥ 75% | – | ≥ 75% | – | ≤ 0.1 µM | ≤ 0.1 µM | – | –
3 | NC(=O)c1cnn(C(=O)N2CCC3(CCN(Cc4ccc(C(F)(F)F)c(N5CCCC5)c4)C3)C2)c1 (centres unmarked) [Example 209, 1-(7-(3-(pyrrolidin-1-yl)-4-(trifluoromethyl)benzyl)-2,7-diazaspiro[4.4]nonane-2-carbonyl)-1H-pyrazole-4-carboxamide] | ≥ 75% | – | ≥ 75% | – | – | – | – | –
4 | NC(=O)c1cnn(C(=O)N2CCC3(CCN(Cc4ccc(C(F)(F)F)c(N5CCOCC5)c4)C3)C2)c1 (centres unmarked) [Example 208, 1-(7-(3-morpholino-4-(trifluoromethyl)benzyl)-2,7-diazaspiro[4.4]nonane-2-carbonyl)-1H-pyrazole-4-carboxamide] | ≥ 75% | – | ≥ 75% | – | – | – | – | –
5 | CNC(=O)c1cnn(C(=O)N2CCC3(CCN(Cc4cc(Cl)cc(C(F)(F)F)c4)C3)C2)c1 (centres unmarked) [Example 44, 1-(7-(3-chloro-5-(trifluoromethyl)benzyl)-2,7-diazaspiro[4.4]nonane-2-carbonyl)-N-methyl-1H-pyrazole-4-carboxamide] | ≥ 75% | – | ≥ 75% | – | – | – | – | –
6 | O=C(N1CCC2(CCN(Cc3ccc(Cl)c(Cl)c3)C2)C1)n1cc(Cl)cn1 (single isomer, unassigned) [Example 139, (4-chloro-1H-pyrazol-1-yl)(7-(3,4-dichlorobenzyl)-2,7-diazaspiro[4.4]nonan-2-yl)methanone] | – | – | – | – | ≤ 0.1 µM | 0.1 to 1 µM | – | –
7 | O=C(N1CC2CN(Cc3ccc(Cl)cc3N3CCC4(CCOCC4)C3)CC2C1)n1cc(Cl)cn1 (centres unmarked) [Example 111, (4-chloro-1H-pyrazol-1-yl)(5-(4-chloro-2-(8-oxa-2-azaspiro[4.5]decan-2-yl)benzyl)hexahydropyrrolo[3,4-c]pyrrol-2(1H)-yl)methanone] | ≥ 75% | – | ≥ 75% | – | 1 to 10 µM | ≤ 0.1 µM | – | –
8 | O=C(c1cnn(C(=O)N2CC3CN(Cc4ccc(N5CCOCC5)cc4C(F)(F)F)CC3C2)c1)N1CCCC1 (centres unmarked) [Example 12, (5-(4-morpholino-2-(trifluoromethyl)benzyl)hexahydropyrrolo[3,4-c]pyrrol-2(1H)-yl)(4-(pyrrolidine-1-carbonyl)-1H-pyrazol-1-yl)methanone] | ≥ 75% | – | ≥ 75% | – | – | – | – | –
9 | O=C(N1CC2CN(Cc3ccccc3F)CC2C1)n1cc(C(F)(F)F)cn1 (centres unmarked) [Example 152, (5-(2-fluorobenzyl)hexahydropyrrolo[3,4-c]pyrrol-2(1H)-yl)(4-(trifluoromethyl)-1H-pyrazol-1-yl)methanone] | ≥ 75% | – | ≥ 75% | – | ≤ 0.1 µM | ≤ 0.1 µM | – | –
10 | CC(=O)N(Cc1ccccc1Cl)[C@H]1C[C@@H]2CN(C(=O)n3cc(Cl)cn3)C[C@@H]2C1 [Example 63, N-(trans-2-(4-chloro-1H-pyrazole-1-carbonyl)octahydrocyclopenta[c]pyrrol-5-yl)-N-(2-chlorobenzyl)acetamide] | 25 to 50% | – | ≥ 75% | – | – | – | – | –
11 | O=C(N1CCC2(CCN(Cc3ccc(Cl)c(Cl)c3)C2)C1)n1cc(Cl)cn1 (centres unmarked) [Example 127, (4-chloro-1H-pyrazol-1-yl)(7-(3,4-dichlorobenzyl)-2,7-diazaspiro[4.4]nonan-2-yl)methanone] | ≥ 75% | – | ≥ 75% | – | ≤ 0.1 µM | 0.1 to 1 µM | – | –
12 | CN(Cc1cccc(C(F)(F)F)c1)[C@@H]1C[C@@H]2CN(C(=O)n3cc(Cl)cn3)C[C@@H]2C1 [Example 80, (4-chloro-1H-pyrazol-1-yl)(cis-5-(methyl(3-(trifluoromethyl)benzyl)amino)hexahydrocyclopenta[c]pyrrol-2(1H)-yl)methanone] | ≥ 75% | – | ≥ 75% | – | ≤ 0.1 µM | ≤ 0.1 µM | – | –
13 | O=C(N1CC2CN(Cc3cccc(N4CCOCC4)c3)CC2C1)n1cc(C(F)(F)F)cn1 (centres unmarked) [Example 145, (5-(3-morpholinobenzyl)hexahydropyrrolo[3,4-c]pyrrol-2(1H)-yl)(4-(trifluoromethyl)-1H-pyrazol-1-yl)methanone] | ≥ 75% | – | ≥ 75% | – | ≤ 0.1 µM | ≤ 0.1 µM | – | –
14 | O=C(N1CCC2(CCN(Cc3ccccc3C(F)(F)F)C2)C1)n1cc(C(F)(F)F)cn1 (centres unmarked) [Example 180, (4-(trifluoromethyl)-1H-pyrazol-1-yl)(7-(2-(trifluoromethyl)benzyl)-2,7-diazaspiro[4.4]nonan-2-yl)methanone] | ≥ 75% | – | ≥ 75% | – | – | – | – | –
15 | CN(Cc1ccccc1Cl)[C@@H]1C[C@@H]2CN(C(=O)n3cc(C(=O)N4CCCC4)cn3)C[C@@H]2C1 [Example 57, (trans-5-((2-chlorobenzyl)(methyl)amino)hexahydrocyclopenta[c]pyrrol-2(1H)-yl)(4-(pyrrolidine-1-carbonyl)-1H-pyrazol-1-yl)methanone] | – | – | – | – | – | – | A (% inhibition greater than or equal to 75%) | B (% inhibition greater than or equal to 50% and less than 75%)
16 | O=C(N1CC2CN(Cc3ccc(N4CCOCC4)cc3Cl)CC2C1)n1cc(Cl)cn1 (centres unmarked) [Example 126, (4-chloro-1H-pyrazol-1-yl)(5-(2-chloro-4-morpholinobenzyl)hexahydropyrrolo[3,4-c]pyrrol-2(1H)-yl)methanone] | ≥ 75% | – | ≥ 75% | – | ≤ 0.1 µM | ≤ 0.1 µM | – | –
17 | CN(Cc1ccc(Oc2cccnc2)cc1)[C@H]1C[C@@H]2CN(C(=O)n3cc(Cl)cn3)C[C@@H]2C1 [Example 161, (4-chloro-1H-pyrazol-1-yl)(trans-5-(methyl(4-(pyridin-3-yloxy)benzyl)amino)hexahydrocyclopenta[c]pyrrol-2(1H)-yl)methanone] | ≥ 75% | – | ≥ 75% | – | – | – | – | –
18 | O=C(N1C[C@H]2C[C@H](NCc3ccc(Cl)cc3)C[C@H]2C1)n1cc(Cl)cn1 [Example 73, (4-chloro-1H-pyrazol-1-yl)(trans-5-((4-chlorobenzyl)amino)hexahydrocyclopenta[c]pyrrol-2(1H)-yl)methanone] | ≥ 75% | – | ≥ 75% | – | ≤ 0.1 µM | 0.1 to 1 µM | – | –
19 | CN(Cc1ccccc1Cl)[C@@H]1C[C@@H]2CN(C(=O)n3cc(Cl)cn3)C[C@@H]2C1 [Example 58, (4-chloro-1H-pyrazol-1-yl)(cis-5-((2-chlorobenzyl)(methyl)amino)hexahydrocyclopenta[c]pyrrol-2(1H)-yl)methanone] | ≥ 75% | – | ≥ 75% | – | ≤ 0.1 µM | 0.1 to 1 µM | – | –
20 | CC(=O)N1CCN(c2cc(F)ccc2CN2CC3CN(C(=O)n4cc(Cl)cn4)CC3C2)CC1 (centres unmarked) [Example 107, 1-(4-(2-((5-(4-chloro-1H-pyrazole-1-carbonyl)hexahydropyrrolo[3,4-c]pyrrol-2(1H)-yl)methyl)-5-fluorophenyl)piperazin-1-yl)ethan-1-one] | ≥ 75% | – | ≥ 75% | – | 0.1 to 1 µM | ≤ 0.1 µM | – | –
21 | CNC(=O)c1cnn(C(=O)N2CCC3(CCN(Cc4ccc(N5CCOCC5)cc4C(F)(F)F)C3)C2)c1 (centres unmarked) [Example 49, N-methyl-1-(7-(4-morpholino-2-(trifluoromethyl)benzyl)-2,7-diazaspiro[4.4]nonane-2-carbonyl)-1H-pyrazole-4-carboxamide] | ≥ 75% | – | ≥ 75% | – | – | – | – | –
22 | O=C(N1CCC2(CCN(Cc3cccc(Oc4ccccc4)c3)C2)C1)n1cc(Cl)cn1 (centres unmarked) [Example 135, (4-chloro-1H-pyrazol-1-yl)(7-(3-phenoxybenzyl)-2,7-diazaspiro[4.4]nonan-2-yl)methanone] | ≥ 75% | – | ≥ 75% | – | ≤ 0.1 µM | 0.1 to 1 µM | – | –
